Measured values as given in PubChem BioAssay (NCI).
Where “and” joins values, the source holds several entries; their conditions need not be identical. Equal entries are not always repeated.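 Grown in 96-well plates, cells were treated for 48 hours with each compound at five concentrations. Insufficient inhibition: endpoint recorded as highest concentration tested. At the GI50, growth is halved. TGI: total growth inhibition.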

Assays:
Assay in all cases: inhibition of tumour cell growth, NCI panel, 48 h
OVCAR-4 ovarian = system: OVCAR-4 ovarian
HL-60(TB) leukemia = system: HL-60(TB) leukemia
MALME-3M melanoma = system: MALME-3M melanoma
HT29 colon = system: HT29 colon
M19-MEL melanoma = system: M19-MEL melanoma
SN12C renal = system: SN12C renal
HOP-18 NSCLC = system: HOP-18 NSCLC
786-0 renal = system: 786-0 renal
HOP-62 NSCLC = system: HOP-62 NSCLC
KM12 colon = system: KM12 colon
RPMI-8226 leukemia = system: RPMI-8226 leukemia
A549 NSCLC = system: A549 NSCLC
K-562 leukemia = system: K-562 leukemia
HCC-2998 colon = system: HCC-2998 colon
U251 CNS = system: U251 CNS
NCI-H23 lung = system: NCI-H23 lung
SNB-75 CNS = system: SNB-75 CNS
RXF 393 renal = system: RXF 393 renal
DMS 273 small cell lung = system: DMS 273 small cell lung
OVCAR-3 ovarian = system: OVCAR-3 ovarian
OVCAR-8 ovarian = system: OVCAR-8 ovarian
XF 498 CNS = system: XF 498 CNS
NCI-H522 lung = system: NCI-H522 lung
SW-620 colon = system: SW-620 colon
OVCAR-5 ovarian = system: OVCAR-5 ovarian
HCT-15 colon = system: HCT-15 colon
A498 renal = system: A498 renal
SF-268 CNS = system: SF-268 CNS
UO-31 renal = system: UO-31 renal
NCI-H226 lung = system: NCI-H226 lung
NCI-H460 lung = system: NCI-H460 lung
HOP-92 NSCLC = system: HOP-92 NSCLC
IGROV1 ovarian = system: IGROV1 ovarian
KM20L2 colon = system: KM20L2 colon
DLD-1 colon = system: DLD-1 colon
SF-539 CNS = system: SF-539 CNS
COLO 205 colon = system: COLO 205 colon
SNB-78 CNS = system: SNB-78 CNS
DMS 114 small cell lung = system: DMS 114 small cell lung
UACC-257 melanoma = system: UACC-257 melanoma
MOLT-4 leukemia = system: MOLT-4 leukemia
SNB-19 CNS = system: SNB-19 CNS
CAKI-1 renal = system: CAKI-1 renal
SK-MEL-2 melanoma = system: SK-MEL-2 melanoma
LXFL 529 NSCLC = system: LXFL 529 NSCLC
EKVX NSCLC = system: EKVX NSCLC
LOX IMVI melanoma = system: LOX IMVI melanoma
SF-295 CNS = system: SF-295 CNS
M14 melanoma = system: M14 melanoma
SR leukemia = system: SR leukemia
ACHN renal = system: ACHN renal
SK-OV-3 ovarian = system: SK-OV-3 ovarian
SK-MEL-28 melanoma = system: SK-MEL-28 melanoma
HCT-116 colon = system: HCT-116 colon
TK-10 renal = system: TK-10 renal
SK-MEL-5 melanoma = system: SK-MEL-5 melanoma
HS 578T breast = system: HS 578T breast

## CCN(CC)CCCNc1ccc2ncn3c4ccc(O)cc4c(=O)c1c23
OVCAR-4 ovarian
  TGI: 11.9 µM
HL-60(TB) leukemia
  GI50: 0.17 µM
  TGI: 4.49 µM and 1.62 µM
MALME-3M melanoma
  GI50: 4.17 µM
  TGI: 19.1 µM
HT29 colon
  GI50: 2.32 µM
  TGI: 7.78 µM
M19-MEL melanoma
  TGI: 21.3 µM
SN12C renal
  GI50: 2.78 µM
  TGI: 14.7 µM
HOP-18 NSCLC
  TGI: 34.6 µM
786-0 renal
  GI50: 0.802 µM
  TGI: 14.5 µM
HOP-62 NSCLC
  GI50: 1.25 µM
  TGI: 19.2 µM
KM12 colon
  GI50: 2.6 µM
  TGI: 19.5 µM
RPMI-8226 leukemia
  GI50: 1.45 µM
  TGI: 21.8 µM
A549 NSCLC
  GI50: 0.336 µM
  TGI: 6.94 µM
K-562 leukemia
  GI50: 1.3 µM
  TGI: 20.5 µM
HCC-2998 colon
  GI50: 3.59 µM
  TGI: 17.8 µM
U251 CNS
  GI50: 2.05 µM
  TGI: 17.7 µM
NCI-H23 lung
  GI50: 0.784 µM
  TGI: 14.5 µM
SNB-75 CNS
  GI50: 2.3 µM
  TGI: 8.49 µM and 8.39 µM
RXF 393 renal
  GI50: 0.902 µM
  TGI: 6.35 µM and 2.69 µM
DMS 273 small cell lung
  TGI: 14.8 µM
OVCAR-3 ovarian
  TGI: 22.2 µM
OVCAR-8 ovarian
  GI50: 0.669 µM
  TGI: 13.4 µM
XF 498 CNS
  TGI: 14.2 µM
NCI-H522 lung
  GI50: 0.218 µM
  TGI: 4.44 µM and 4.68 µM
SW-620 colon
  GI50: 0.832 µM
  TGI: 15.8 µM
OVCAR-5 ovarian
  GI50: 4.39 µM
  TGI: 10.7 µM
HCT-15 colon
  GI50: 2.03 µM
  TGI: 15.7 µM
A498 renal
  GI50: 0.6 µM
  TGI: 17.8 µM
SF-268 CNS
  GI50: 2.66 µM
  TGI: 17.5 µM
UO-31 renal
  GI50: 0.295 µM
  TGI: 13.4 µM
NCI-H226 lung
  TGI: 3.5 µM
NCI-H460 lung
  GI50: 0.0627 µM
  TGI: 5.78 µM
HOP-92 NSCLC
  GI50: 1.28 µM
  TGI: 7.57 µM and 12.5 µM
IGROV1 ovarian
  GI50: 0.265 µM
  TGI: 8.58 µM and 18.6 µM
KM20L2 colon
  TGI: 18.2 µM
DLD-1 colon
  TGI: 16.1 µM
SF-539 CNS
  GI50: 4.51 µM
  TGI: 17.2 µM
COLO 205 colon
  TGI: 19.4 µM
SNB-78 CNS
  TGI: 28.8 µM
DMS 114 small cell lung
  TGI: 23.8 µM
UACC-257 melanoma
  TGI: 23.8 µM
MOLT-4 leukemia
  TGI: 0.255 µM and 0.52 µM
SNB-19 CNS
  GI50: 0.493 µM
  TGI: 20.2 µM
CAKI-1 renal
  GI50: 0.205 µM
  TGI: 2.48 µM and 2.36 µM
SK-MEL-2 melanoma
  TGI: 19 µM
LXFL 529 NSCLC
  TGI: 18.5 µM
EKVX NSCLC
  GI50: 5.51 µM
  TGI: 19 µM
LOX IMVI melanoma
  GI50: 0.95 µM
  TGI: 2.37 µM and 2.56 µM
SF-295 CNS
  GI50: 1.83 µM
  TGI: 15.9 µM
M14 melanoma
  TGI: 16 µM
SR leukemia
  GI50: 0.124 µM
  TGI: 2.86 µM and 1.53 µM
ACHN renal
  GI50: 0.389 µM
  TGI: 3.78 µM
SK-OV-3 ovarian
  GI50: 0.369 µM
  TGI: 17.8 µM
SK-MEL-28 melanoma
  TGI: 25.2 µM
HCT-116 colon
  GI50: 0.359 µM
  TGI: 9.75 µM and 14.1 µM
TK-10 renal
  GI50: 2.23 µM
  TGI: 21.2 µM
SK-MEL-5 melanoma
  TGI: 18.3 µM
HS 578T breast
  TGI: 7.28 µM
